Test system: CD1 female mouse brain lipidome
Test: Brain-region lipid levels (HPLC/MS/MS lipidomics) 2 h after single i.p. 3 mg/kg CP 55,940 vs vehicle
Format: in vivo
Procedure: The Bloomington Institutional Animal Care and Use Committee of Indiana University reviewed and approved the animal procedures. Female mice from the CD1 strain were utilized to match our study examining THC’s effects on the brain lipidome ([Leishman et al., 2018]). Mice were given a single i.p. injection of either 3 mg/kg CP or 1:1:18 cremophor:ethanol:saline vehicle (please refer to the section “3 mg/kg CP Is Relevant for Synthetic Cannabinoid Abuse and Has Stronger Effects on the Female Mouse Brain Lipidome During Adolescence” for a justification of dose and use of female mice). Three different age groups were given injections: PND 35 and PND 50 adolescents, and adult mice (PND 113). At least eight mice in each age group received CP and at least eight received vehicle. Matching the THC study time course ([Leishman et al., 2018]), mice were sacrificed via rapid decapitation 2 h after injection. Brains were immediately removed and flash-frozen in liquid nitrogen, and then stored at -80°C until dissections were performed. Brains were dissected on an ice-cold dissection plate into the following regions: STR, HIPP, CER, THAL, CTX, HYP, MID, and STEM. These abbreviations for these brain areas will be used exclusively when discussing the results generated by these specific dissections. Each dissected area was immediately placed in liquid nitrogen and then stored at -80°C until used for lipid extraction.
Tissue extracts were performed as previously described ([Bradshaw et al., 2006]; [Stuart et al., 2013]; [Raboune et al., 2014]; [Leishman et al., 2016a],[b], [2017], [2018]). First, samples were shock frozen in liquid nitrogen, weighed, and transferred to a centrifuge tube. The mass of the largest sample was multiplied by 50 to determine how many milliliters of HPLC-grade methanol (Fisher, Fair Lawn, NJ, United States) to add. Then, samples were spiked with 500 pmol deuterium-labeled NAGly (d8NAGly; Cayman Chemical, Ann Arbor, MI, United States). Samples were placed on ice in darkness for 2 h then individually homogenized and centrifuged at 19,000 × g for 20 min at 20°C. Supernatants were diluted with HPLC water (purified in house) to make a solution of 75% water, 25% supernatant. Lipids were partially purified on C18 solid phase extraction columns (Agilent, Palo Alto, CA, United States). A series of four elutions with 1.5 mL of 60%, 75%, 85%, and 100% methanol were collected ([Stuart et al., 2013]; [Leishman et al., 2016a],[b], [2018]).
As previously described ([Bradshaw et al., 2006]; [Tan et al., 2006]; [Smoum et al., 2010]; [Stuart et al., 2013]; [Tortoriello et al., 2013]; [Raboune et al., 2014]; [Leishman et al., 2016a],[b], [2017], [2018]), samples were analyzed using an Applied Biosystems API 3000 triple quadrupole mass spectrometer with electrospray ionization (Foster City, CA, United States). Using an Agilent XDB-C18 reversed phase analytical column and optimized mobile phase gradients, 20 μL from each elution were chromatographed. Two Shimadzu 10ADvp pumps (Columbia, MD, United States) provided the pressure for gradient elution. Mobile phase A: 20% methanol, 80% water (v/v) and 1 mM ammonium acetate (Sigma, St. Louis, MO, United States). Mobile phase B: 100% methanol, 1 mM ammonium acetate. Every method run began with 0% mobile phase B, reached 100% mobile phase B flowing at 0.2 mL/min, and gradually returned to 0% mobile phase B.
This screening library will be referred to as the lipidome when discussing data from this study. HPLC/MS/MS data were analyzed using Analyst software (Applied Biosystems) ([Bradshaw et al., 2006]; [Tan et al., 2006]; [Stuart et al., 2013]; [Tortoriello et al., 2013]; [Raboune et al., 2014]; [Leishman et al., 2016a],[b], [2017], [2018]). Chromatograms (Supplementary Figure 3) were generated by determining the retention time of analytes from the analytical column with a [M-1] or [M+1] parent peak and a fragmentation peak corresponding to the programmed values. […]

CCCCCCC(C)(C)c1ccc([C@@H]2C[C@H](O)CC[C@H]2CCCO)c(O)c1 [CP 55,940]
N-stearoyl leucine mean level (PND 35 striatum): 9.98E-13 moles per gram | N-stearoyl methionine mean level (PND 35 striatum): 1.31E-12 moles per gram | N-stearoyl phenylalanine mean level (PND 35 striatum): 1.28E-12 moles per gram | N-stearoyl serine mean level (PND 35 striatum): 1.89E-11 moles per gram | N-stearoyl tryptophan mean level (PND 35 striatum): 5.77E-13 moles per gram | Oleic acid mean level (PND 35 striatum): 1.18E-09 moles per gram | PGE2 mean level (PND 35 striatum): 3.74E-10 moles per gram | PGF2α mean level (PND 35 striatum): 2.8E-10 moles per gram | PhosphoLEA mean level (PND 35 striatum): 1.91E-11 moles per gram | total changes in lipid levels across the eight regions (PND 50): 141 | changes in lipid levels that were decreases (PND 50, eight regions): 110 | 2-linoleoyl glycerol level vs vehicle (PND 50 CER): ↓↓ (1.50-1.99 times lower than vehicle) | 2-oleoyl glycerol level vs vehicle (PND 50 CER): ↓ (1-1.49 times lower than vehicle) | 2-palmitoyl glycerol level vs vehicle (PND 50 CER): ↓ (1-1.49 times lower than vehicle) | 6-ketoPGF1α level vs vehicle (PND 50 CER): ↑ (1-1.49 times higher than vehicle) | Arachidonic acid level vs vehicle (PND 50 CER): ↓ (1-1.49 times lower than vehicle) | Linoleic acid level vs vehicle (PND 50 CER): ↓ (1-1.49 times lower than vehicle) | N-arachidonoyl GABA level vs vehicle (PND 50 CER): ↓ (1-1.49 times lower than vehicle) | N-arachidonoyl ethanolamine level vs vehicle (PND 50 CER): ↓ (1-1.49 times lower than vehicle) | N-arachidonoyl glycine level vs vehicle (PND 50 CER): ↓ (1-1.49 times lower than vehicle) | N-arachidonoyl phenylalanine level vs vehicle (PND 50 CER): ↓↓ (1.50-1.99 times lower than vehicle) | N-arachidonoyl serine level vs vehicle (PND 50 CER): ↓ (1-1.49 times lower than vehicle) | N-arachidonoyl taurine level vs vehicle (PND 50 CER): ↓ (1-1.49 times lower than vehicle) | N-arachidonoyl tyrosine level vs vehicle (PND 50 CER): ↓ (1-1.49 times lower than vehicle) | N-docosahexaenoyl phenylalanine level vs vehicle (PND 50 CER): ↓ (1-1.49 times lower than vehicle) | N-linoleoyl ethanolamine level vs vehicle (PND 50 CER): ↓ (1-1.49 times lower than vehicle) | N-oleoyl GABA level vs vehicle (PND 50 CER): ↓ (1-1.49 times lower than vehicle) | N-oleoyl ethanolamine level vs vehicle (PND 50 CER): ↓ (1-1.49 times lower than vehicle) | N-oleoyl phenylalanine level vs vehicle (PND 50 CER): ↑ (1-1.49 times higher than vehicle) | N-palmitoyl leucine level vs vehicle (PND 50 CER): ↑↑ (1.50-1.99 times higher than vehicle) | N-palmitoyl valine level vs vehicle (PND 50 CER): ↑ (1-1.49 times higher than vehicle) | Oleic Acid level vs vehicle (PND 50 CER): ↓ (1-1.49 times lower than vehicle) | PGE2 level vs vehicle (PND 50 CER): ↓ (1-1.49 times lower than vehicle) | PGF2α level vs vehicle (PND 50 CER): ↓ (1-1.49 times lower than vehicle) | 2-linoleoyl glycerol level vs vehicle (PND 50 CTX): ↓ (1-1.49 times lower than vehicle) | 2-oleoyl glycerol level vs vehicle (PND 50 CTX): ↓ (1-1.49 times lower than vehicle) | Arachidonic acid level vs vehicle (PND 50 CTX): ↓ (1-1.49 times lower than vehicle) | Linoleic acid level vs vehicle (PND 50 CTX): ↓↓ (1.50-1.99 times lower than vehicle) | N- stearoyl valine level vs vehicle (PND 50 CTX): ↑ (1-1.49 times higher than vehicle) | N-arachidonoyl GABA level vs vehicle (PND 50 CTX): ↓ (1-1.49 times lower than vehicle) | N-arachidonoyl alanine level vs vehicle (PND 50 CTX): ↓ (1-1.49 times lower than vehicle) | N-arachidonoyl ethanolamine level vs vehicle (PND 50 CTX): ↓ (1-1.49 times lower than vehicle) | N-arachidonoyl phenylalanine level vs vehicle (PND 50 CTX): ↓ (1-1.49 times lower than vehicle) | N-arachidonoyl taurine level vs vehicle (PND 50 CTX): ↓ (1-1.49 times lower than vehicle) | N-docosahexaenoyl ethanolamine level vs vehicle (PND 50 CTX): ↓ (1-1.49 times lower than vehicle) | N-linoleoyl ethanolamine level vs vehicle (PND 50 CTX): ↓ (1-1.49 times lower than vehicle) | N-oleoyl ethanolamine level vs vehicle (PND 50 CTX): ↓↓ (1.50-1.99 times lower than vehicle) | N-oleoyl serine level vs vehicle (PND 50 CTX): ↑ (1-1.49 times higher than vehicle) | N-palmitoyl leucine level vs vehicle (PND 50 CTX): ↑ (1-1.49 times higher than vehicle) | N-palmitoyl methionine level vs vehicle (PND 50 CTX): ↑ (1-1.49 times higher than vehicle) | N-palmitoyl phenylalanine level vs vehicle (PND 50 CTX): ↑ (1-1.49 times higher than vehicle) | N-palmitoyl tyrosine level vs vehicle (PND 50 CTX): ↑ (1-1.49 times higher than vehicle) | N-palmitoyl valine level vs vehicle (PND 50 CTX): ↑ (1-1.49 times higher than vehicle) | N-stearoyl phenylalanine level vs vehicle (PND 50 CTX): ↑ (1-1.49 times higher than vehicle) | PGE2 level vs vehicle (PND 50 CTX): ↓ (1-1.49 times lower than vehicle) | 2-linoleoyl glycerol level vs vehicle (PND 50 HIPP): ↓ (1-1.49 times lower than vehicle) | 6-ketoPGF1α level vs vehicle (PND 50 HIPP): ↑ (1-1.49 times higher than vehicle) | Linoleic acid level vs vehicle (PND 50 HIPP): ↓ (1-1.49 times lower than vehicle) | N-arachidonoyl alanine level vs vehicle (PND 50 HIPP): ↓ (1-1.49 times lower than vehicle) | N-arachidonoyl ethanolamine level vs vehicle (PND 50 HIPP): ↓↓ (1.50-1.99 times lower than vehicle) | N-arachidonoyl glycine level vs vehicle (PND 50 HIPP): ↓↓ (1.50-1.99 times lower than vehicle) | N-arachidonoyl serine level vs vehicle (PND 50 HIPP): ↓↓ (1.50-1.99 times lower than vehicle) | N-arachidonoyl taurine level vs vehicle (PND 50 HIPP): ↓ (1-1.49 times lower than vehicle) | N-arachidonoyl tyrosine level vs vehicle (PND 50 HIPP): ↑ (1-1.49 times higher than vehicle) | N-docosahexaenoyl ethanolamine level vs vehicle (PND 50 HIPP): ↓ (1-1.49 times lower than vehicle) | N-linoleoyl ethanolamine level vs vehicle (PND 50 HIPP): ↓↓ (1.50-1.99 times lower than vehicle) | N-linoleoyl serine level vs vehicle (PND 50 HIPP): ↑ (1-1.49 times higher than vehicle) | N-oleoyl leucine level vs vehicle (PND 50 HIPP): ↓ (1-1.49 times lower than vehicle) | N-oleoyl serine level vs vehicle (PND 50 HIPP): ↑ (1-1.49 times higher than vehicle) | PGE2 level vs vehicle (PND 50 HIPP): ↑ (1-1.49 times higher than vehicle) | PGF2α level vs vehicle (PND 50 HIPP): ↑ (1-1.49 times higher than vehicle) | 2-arachidonoyl glycerol level vs vehicle (PND 50 HYP): ↓ (1-1.49 times lower than vehicle) | N-arachidonoyl phenylalanine level vs vehicle (PND 50 HYP): ↓ (1-1.49 times lower than vehicle) | N-palmitoyl leucine level vs vehicle (PND 50 HYP): ↑ (1-1.49 times higher than vehicle) | PGF2α level vs vehicle (PND 50 HYP): ↑ (1-1.49 times higher than vehicle) | number of lipids changed (PND 50 HYP, 49 detected): four | 2-linoleoyl glycerol level vs vehicle (PND 50 MID): ↓ (1-1.49 times lower than vehicle) | 2-oleoyl glycerol level vs vehicle (PND 50 MID): ↓ (1-1.49 times lower than vehicle) | 6-ketoPGF1α level vs vehicle (PND 50 MID): ↓ (1-1.49 times lower than vehicle) | Linoleic acid level vs vehicle (PND 50 MID): ↓ (1-1.49 times lower than vehicle) | N-arachidonoyl GABA level vs vehicle (PND 50 MID): ↓ (1-1.49 times lower than vehicle) | N-arachidonoyl alanine level vs vehicle (PND 50 MID): ↓↓ (1.50-1.99 times lower than vehicle) | N-arachidonoyl ethanolamine level vs vehicle (PND 50 MID): ↓ (1-1.49 times lower than vehicle) | N-arachidonoyl glycine level vs vehicle (PND 50 MID): ↓↓ (1.50-1.99 times lower than vehicle) | N-arachidonoyl methionine level vs vehicle (PND 50 MID): ↓↓ (1.50-1.99 times lower than vehicle) | N-arachidonoyl phenylalanine level vs vehicle (PND 50 MID): ↓ (1-1.49 times lower than vehicle) | N-arachidonoyl tyrosine level vs vehicle (PND 50 MID): ↓ (1-1.49 times lower than vehicle) | N-docosahexaenoyl GABA level vs vehicle (PND 50 MID): ↓ (1-1.49 times lower than vehicle) | N-docosahexaenoyl ethanolamine level vs vehicle (PND 50 MID): ↓ (1-1.49 times lower than vehicle) | N-docosahexaenoyl leucine level vs vehicle (PND 50 MID): ↑ (1-1.49 times higher than vehicle) | N-linoleoyl ethanolamine level vs vehicle (PND 50 MID): ↓ (1-1.49 times lower than vehicle) | N-oleoyl ethanolamine level vs vehicle (PND 50 MID): ↓ (1-1.49 times lower than vehicle) | N-oleoyl methionine level vs vehicle (PND 50 MID): ↓↓ (1.50-1.99 times lower than vehicle) | N-palmitoyl alanine level vs vehicle (PND 50 MID): ↓ (1-1.49 times lower than vehicle) | N-palmitoyl ethanolamine level vs vehicle (PND 50 MID): ↓ (1-1.49 times lower than vehicle) | N-palmitoyl leucine level vs vehicle (PND 50 MID): ↑ (1-1.49 times higher than vehicle) | N-palmitoyl serine level vs vehicle (PND 50 MID): ↓ (1-1.49 times lower than vehicle) | N-stearoyl methionine level vs vehicle (PND 50 MID): ↓ (1-1.49 times lower than vehicle) | N-stearoyl phenylalanine level vs vehicle (PND 50 MID): ↓ (1-1.49 times lower than vehicle) | Oleic Acid level vs vehicle (PND 50 MID): ↓ (1-1.49 times lower than vehicle) | PGE2 level vs vehicle (PND 50 MID): ↓ (1-1.49 times lower than vehicle) | PGF2α level vs vehicle (PND 50 MID): ↓ (1-1.49 times lower than vehicle)

From paper PMC6277767, “Broad and Region-Specific Impacts of the Synthetic Cannabinoid CP 55,940 in Adolescent and Adult Female Mouse Brains” (Frontiers in Molecular Neuroscience, 2018)
